From patent publication US6894050B2, “5-HT receptor ligands and uses thereof” (Pfizer Inc., priority 2001, dated 2005)
Where a name gives a salt, the structure may show the parent alone. Values belong to the molecule of their own block, whether it stands above or below them.

Tests used:
[1] = molecular target: T1, rat 5HT2A receptor (Rattus norvegicus, UniProt P14842); assay: 5HT2A Binding Procedure (competition binding using 125I-DOI); settings: NIH 3T3 mouse cells transfected with rat 5HT2A receptor, read-out: Ki values for 5HT2a binding (upper end of range)
T1 construct: expressed in transfected cells; host or cells: NIH 3T3 mouse cells
T1 sequence (P14842 whole entry): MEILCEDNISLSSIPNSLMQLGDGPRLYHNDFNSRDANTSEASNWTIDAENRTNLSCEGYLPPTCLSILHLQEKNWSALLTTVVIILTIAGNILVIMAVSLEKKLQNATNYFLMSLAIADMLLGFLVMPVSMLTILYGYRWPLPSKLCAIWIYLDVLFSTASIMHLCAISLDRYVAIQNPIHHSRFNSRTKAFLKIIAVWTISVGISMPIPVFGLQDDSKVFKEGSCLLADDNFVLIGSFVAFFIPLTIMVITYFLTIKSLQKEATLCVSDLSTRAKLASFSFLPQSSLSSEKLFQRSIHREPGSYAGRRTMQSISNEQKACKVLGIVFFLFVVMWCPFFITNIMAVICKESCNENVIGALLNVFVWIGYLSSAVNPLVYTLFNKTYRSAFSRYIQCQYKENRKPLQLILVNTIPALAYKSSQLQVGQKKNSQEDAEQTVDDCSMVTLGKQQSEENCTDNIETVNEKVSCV
Protocol: Affinity of compounds at the serotonin 5HT2A binding site was determined by competition binding in NIH 3T3 mouse cells transfected with the rat 5HT2A receptor using 125I-DOI. The method was adapted from Leonhardt et al., Molecular Pharmacology, 42, 328-335 (1992). Frozen cell paste was homgenized in 50 mM tris-HCl buffer pH 7.4 containing 2 mM MgCl2 using a Polytron and centrifuged at 45000×g for ten minutes. The resulting pellet was resuspended in fresh ice-cold 50 mM tris-HCl buffer pH 7.4 containing 2 mM MgCl2 using a Polytron™ and centrifuged again at 45000×g for ten minutes. The final pellet was resuspended in 50 mM tris-HCl buffer pH 7.4 containing 2 mM MgCl2 at a concentraion of 5 mg/mL. Wells in a 96 well plate contained 25 μL of 0.7 nM 125I-DOI (70 pM final conc.), and 25 μL of vehicle (assay buffer), blank (10 μM cinanserin), or test compound (10× final volume). […] Filter mats were removed, dried and counted in a Wallac Betaplate counter. Concentration-response curves of the % inhibition of specific binding and log concentration by test compounds were used to determine the IC50 for each compound and the Ki value calculated based on the Cheng-Prusof equation (Ki=IC50/(1+(L/Kd)), where L is the concentration of the radioligand used in the binding assay and the Kd was based on previous saturation studies with the radioligand.

[2] = tested on: conscious male rat; assay: Intracavernosal pressure (ICP) by telemetric recording in the conscious male rat; format: in vivo
From the text: ICP Protocol: Intra cavernosal pressure (ICP) can be measured in the conscious rat by means of telemetric recording. A catheter is surgically implanted into the corpus cavernosum. The end of the catheter is linked to a device, which senses, processes, and transmits information digitally from within the animal. A receiver converts the radio-frequency signal from the implant to a digital pulse stream that is readable by a data collection system. The PC-based system collects telemetred data from the animal.
Surgery:—Induce and maintain general anaesthesia using 5% Isoflurane® in a carrier gas of 0.5 L/min oxygen and 1 L/min nitrous oxide to induce anaesthesia, reducing to 2% Isoflurane for maintenance anaesthesia. Administer 5 mg/kg subcutaneously (s.c.) Carprofen (Rimadyl® Large Animal Injection, 50 mg/ml, Pfizer Animal Health) at induction of anaesthesia, at end of day of surgery and on the morning of first day post-surgery to minimise pain and discomfort.
Implantation of corpus cavernosal probe:—Shave the skin of the ventral abdomen and extend to include the area around the penis and ventral scrotum. Clean and disinfect the shaved area. Place the rat in dorsal recumbency. Make a mid-line incision from the external base of the penis, running caudally for approximately 2 cm. Locate and expose the internal structure of the penis and identify the corpus cavernosum. Make a mid-line laparotomy, approximately 4 cm in length to access the abdominal cavity. Pierce the abdominal wall via the caudal incision with a suitable trocar and cannula, taking care not to damage any internal organs. Place the implant body in the abdominal cavity with the catheter orientated caudally and pass the catheter tip through the body wall via the preplaced cannula. Implant used is model TA11PA-C40, 8 mm catheter, with modified 3 mm tip (Data Sciences International Inc.). Secure the implant body to the abdominal wall using non-absorbable sutures and partially close the abdominal incision. Reflect the tip of the penis cranially and retract the caudal incision to optimise the surgical field. Carefully isolate approximately 10 mm of the internal structure of the penis from the surrounding tissue. Carefully reflect the corpus spongiosum to one side to give access to the corpus cavernosum. Access the corpus cavernosum using a modified over-the-needle catheter to puncture the tunica. Introduce the catheter tip via the preplaced catheter and advance until fully inserted. Carefully remove the access catheter and apply a suitable tissue adhesive to the insertion site. Observe for leakage. Close the subcutaneous fat layer in the caudal incision before closing with an appropriate absorbable suture. Instil approximately 5 ml of warm saline through the abdominal incision and complete closure of the mid-line incision. Close the skin incision with an appropriate absorbable suture.
Postoperative care:—Measure food and water intake and monitor bodyweight daily for at least 7 days post surgery, then 2-3 times weekly. Give Lectade® (Pfizer Animal Health) in drinking water for 3 days post surgery. House rats singly, and transfer to reverse light/dark conditions 5 days post surgery. Named Veterinary Surgeon (or Deputy) to issue a certificate of fitness to continue 2 days post surgery. Start using rats experimentally 7 days post surgery.
Experimental Procedure:—Perform experiment in room with reverse light/dark conditions. […] Take baseline reading of intra cavernosal pressure (ICP) for approximately 5 minutes. […]

[3] = tested on: anaesthetised rabbit model of erection; assay: Penile ICP in anaesthetised rabbit model of erection, combination with PDE5 inhibitor; format: in vivo; settings: 5-10 mg/kg s.c. with selective PDE5 inhibitor 1 mg/kg i.v.
Protocol: The effects of concomitant administration of compound(s) of formula (I) in combination with a PDE5 inhibitor on the penile intracavernosal pressure (ICP) in an anaesthetised rabbit model of erection can be measured according to the following protocol.
Male New Zealand rabbits (˜2.5 kg) are pre-medicated with a combination of Medetomidine (Domitor®) 0.5 ml/kg inramuscularly (i.m.), and Ketamine (Vetalar®) 0.25 ml/kg i.m. whilst maintaining oxygen intake via a face mask. The rabbits are tracheotomised using a Portex™ uncuffed endotracheal tube 3 ID (internal diameter), connected to ventilator and maintained at a ventilation rate of 30-40 breaths per minute, with an approximate tidal volume of 18-20 ml, and a maximum airway pressure of 10 cm H2O. Anaesthesia was then switched to Isoflurane® and ventilation continued with O2 at 2 liters/min. The right marginal ear vein was cannulated using a 23G or 24G catheter, and Lactated Ringer solution perfused at 0.5 ml/min. […]
The left groin area of the rabbit was shaved and a vertical incision was made approximately 5 cm in length along the thigh. […] Systolic and diastolic pressures were measured, and the mean arterial pressure calculated using the formula (diastolic×2+systolic)÷3. Heart rate was measured via the pulse oxymeter and Po-ne-mah data acquisition software system (Ponemah Physiology Platform, Gould Instrument Systems Inc). […]

[4] = molecular target: T2, human 5HT2c receptor (Homo sapiens, UniProt P28335); assay: 5HT2c Binding Procedure (competition binding against 3H-5HT); settings: Swiss 3T3 mouse cells transfected with human 5HT2c receptor
T2 construct: expressed in transfected cells; host or cells: Swiss 3T3 mouse cells
T2 sequence (P28335 33-458): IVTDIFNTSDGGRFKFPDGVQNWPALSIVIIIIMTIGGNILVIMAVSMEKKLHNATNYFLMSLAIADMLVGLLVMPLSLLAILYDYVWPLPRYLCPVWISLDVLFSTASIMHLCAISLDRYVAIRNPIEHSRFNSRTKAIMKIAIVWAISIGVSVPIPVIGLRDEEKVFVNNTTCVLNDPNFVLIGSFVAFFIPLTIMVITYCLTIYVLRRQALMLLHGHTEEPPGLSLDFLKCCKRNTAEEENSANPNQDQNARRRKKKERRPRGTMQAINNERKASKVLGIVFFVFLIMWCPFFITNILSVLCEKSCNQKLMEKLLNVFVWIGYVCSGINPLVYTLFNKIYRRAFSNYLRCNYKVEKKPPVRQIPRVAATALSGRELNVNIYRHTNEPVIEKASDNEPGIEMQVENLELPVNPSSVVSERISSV
Protocol: Affinity of compounds at the serotonin 5HT2c binding site was determined by competition binding in Swiss 3T3 mouse cells (available from the American Type Culture Collection (ATCC), Manassas, Va.) transfected with the human 5HT2c receptor against 3H-5HT. The method was adapted from Roth et al., J. of Pharm. And Exp. Therap., 260(3), 1362-1365 (1992). Cells were grown in DMEM high glucose medium, harvested, homogenized, centrifuged, and resuspended in 50 mM Tris-HCL. They were incubated at 37° C. for 15 minutes, centrifuged, and then resuspended into assay buffer (50 mM Tris-HCl, 4 mM CaCl2, 0.1% ascorbic acid, and 100 μM pargyline at pH 7.7) at 100 volumes per gram. Assay tubes contained 25 μL of 10 nM ^3H-5HT (1 nM final conc.), and 25 μl of vehicle (assay buffer), blank (10 μM mianserin), or test compound (10× final volume). 200 μl of tissue homogenate was added to each tube, vortexed, and incubated for 30 minutes at 37° C. Samples were then rapidly filtered under vacuum with a Skatron™ cell harvester (available from Molecular Devices Corporation, Sunnyvale, Calif.) using GF/B filters presoaked in 0.5% polyethyleneimine (PEI), and washed with 2×5 mL cold 50 mM Tris-HCl. Filter mats were removed and counted in a Wallac Betaplate counter (available from PerkinElmer Life Sciences, Gaithersburg, Md.). […]

- Ki [1]: 1000 nM
SMILES: Cc1cccc(CNc2cncc(N3CCNCC3)n2)n1 [Example 4-R, (6-Methyl-pyridin-2-ylmethyl)-(3,4,5,6-tetrahydro-2H-[1,2′]bipyrazinyl-6′-yl)-amine fumarate salt]

SMILES: Fc1ccc(F)c(COc2cncc(N3CCNCC3)n2)c1 [Example 1-M, 6′-(2,5-Difluoro-benzyloxy)-3,4,5,6-tetrahydro-2H-[1,2′]bipyrazinyl]
- number of erectogenic events in a 15 minute test period ([2]; 5 mg/kg s.c.): significantly increased
- number of erectogenic events induced at 120 minutes after dosing ([2]; 120 minutes after dosing): no difference
- proerectile effects in the conscious rat ([2]; conscious rat): induced proerectile effects
- Number of erectogenic events @ 60 min ([2]; conscious rat, 5 mg/kg s.c., 15 minute period, 60 min post injection): 1.5 ± 0.3
- Number of erectogenic events @ 120 min ([2]; conscious rat, 5 mg/kg s.c., 15 minute period, 120 min post injection): 1.3 ± 0.5
- effects on ICP of concomitant administration with PDE5 inhibitor [3]: beneficial effects on ICP

- Ki [4]: 586 nM
SMILES: c1ccc(COc2cncc(N3CCNCC3)n2)nc1 [Example 1-AW, 6′-(Pyridin-2-ylmethoxy)-3,4,5,6-tetrahydro-2H-[1,2′]bipyrazinyl hydrochloride salt]
